Values quoted from earlier work in PubChem BioAssay AID1259409 (Chemical Carcinogenesis Research Information System (CCRIS), 2018).

System: rodent chemically induced tumor inhibition, incidence and multiplicity
Test: CCRIS tumor inhibitor studies

In the case of `CCCC(=O)OC[C@@H](OC(=O)CCC)[C@@H](OC(=O)CCC)[C@H](Cn1c2nc(=O)[nH]c(=O)c-2nc2cc(C)c(C)cc21)OC(=O)CCC`, the “tumour outcome (control, treated, inhibition, significance)” value (Carcinogen: 3-METHYLCHOLANTHRENE, 56-49-5, Dose [Inhibitor]: 0.1% IN 0.05 ML ACETONE 2 HR AFTER APPLICATION OF THE CARCINOGEN THEN 1/2 D (STUDY DURATION: 15 WK), Route [Inhibitor]: DERMAL, Species: MOUSE, Strain/Sex: DDY/FEMALE, Target Tissue: Type of Lesion: SKIN: PAPILLOMA, Dose [Carcinogen]: 0.3% IN 0.05 ML ACETONE 2/WK, Promoter: NONE USED) is given as 7/50 (14%), 2/49 (4%), 71%, not calculated and the “tumour outcome (control, treated, inhibition, significance)” value (Carcinogen: 3-METHYLCHOLANTHRENE, 56-49-5, Dose [Inhibitor]: 0.1% IN 0.05 ML ACETONE 2 HR AFTER APPLICATION OF THE CARCINOGEN THEN 1/2 D (STUDY DURATION: 15 WK), Route [Inhibitor]: DERMAL, Species: MOUSE, Strain/Sex: DDY/FEMALE, Target Tissue: Type of Lesion: SKIN: SQUAMOUS CELL CARCINOMA, Dose [Carcinogen]: 0.3% IN 0.05 ML ACETONE 2/WK, Promoter: NONE USED) is given as 34/50 (68%), 20/49 (41%), 40%, p<0.01.

For `Cn1c(=O)[nH]c2nc[nH]c2c1=O`, the “tumour outcome (control, treated, inhibition, significance)” value (Carcinogen: URETHANE, 51-79-6, Dose [Inhibitor]: 0.05 UMOL/G BW GIVEN AT 6 HR INTERVALS DURING THE PERIOD OF 0 TO 36 HR AFTER CARCINOGEN TREATMENT FOLLOWED BY 5 MO OBSER, Route [Inhibitor]: INTRAPERITONEAL, Species: MOUSE, Strain/Sex: ICR/FEMALE, Target Tissue: Type of Lesion: LUNG: PAPILLARY ADENOMA, Dose [Carcinogen]: 0.1 MG/G BW ONCE, Promoter: NONE USED) is given as 31/59 (53%), 18/36 (50%), 6%, not significant and the “tumour outcome (control, treated, inhibition, significance)” value (Carcinogen: URETHANE, 51-79-6, Dose [Inhibitor]: 0.25 UMOL/G BW 1/D DURING THE PERIOD OF 5 TO 9 D AFTER CARCINOGEN TREATMENT FOLLOWED BY OBSERVATION PERIOD UNTIL END OF, Route [Inhibitor]: INTRAPERITONEAL, Species: MOUSE, Strain/Sex: ICR/FEMALE, Target Tissue: Type of Lesion: LUNG: PAPILLARY ADENOMA, Dose [Carcinogen]: 1 MG/G BW ONCE, Promoter: NONE USED) is given as 49/53 (93%), 39/43 (91%), 2%, not significant.

For `Cn1c(=O)c2[nH]cnc2n(C)c1=O`, the “tumour outcome (control, treated, inhibition, significance)” value (Carcinogen: 1,2-DIMETHYLHYDRAZINE, 540-73-8, Dose [Inhibitor]: 0, 600 MG/L IN DRINKING WATER FOR DURATION OF STUDY BEGINNING 7 D PRIOR TO CARCINOGEN TREATMENT (STUDY DURATION: 8 MO), Route [Inhibitor]: ORAL, Species: RAT, Strain/Sex: BD6/MALE, Target Tissue: Type of Lesion: INTESTINE: TUMOR, Dose [Carcinogen]: 20 MG/KG BW 1/WK FOR 20 WK, Promoter: NONE USED) is listed as 100%, 100%, 0%, not significant, the “tumour outcome (control, treated, inhibition, significance)” value (Carcinogen: 4-(METHYLNITROSAMINO)-1-(3-PYRIDLY)-1-BUTANONE [64091-91-4], Dose [Inhibitor]: 2.5 MG/KG BW 3X/WK FOR 31 WK BEGINNING 1 WK POST LAST CARCINOGEN DOSE (STUDY DURATION: 52 WK), Route [Inhibitor]: SUBCUTANEOUS, Species: HAMSTER, Strain/Sex: SYRIAN/MALE, Target Tissue: Type of Lesion: LUNG: TUMOR, Dose [Carcinogen]: 10 MG/KG BW 3X/WK FOR 20 WK (STUDY DURATION: 52 WK), Promoter: NONE) is listed as 12/15 (80.0%), 15/15 (100.0%), -25%, not calculated and the “tumour outcome (control, treated, inhibition, significance)” value (Carcinogen: 4-(METHYLNITROSAMINO)-1-(3-PYRIDLY)-1-BUTANONE [64091-91-4], Dose [Inhibitor]: 2.5 MG/KG BW 3X/WK FOR 31 WK BEGINNING 1 WK POST LAST CARCINOGEN DOSE (STUDY DURATION: 52 WK), Route [Inhibitor]: SUBCUTANEOUS, Species: HAMSTER, Strain/Sex: SYRIAN/MALE, Target Tissue: Type of Lesion: NASAL CAVITY: TUMOR, Dose [Carcinogen]: 10 MG/KG BW 3X/WK FOR 20 WK (STUDY DURATION: 52 WK), Promoter: NONE) is listed as 4/15 (26.7%), 4/15 (26.7%), 0%, not calculated. For the same compound, the “tumour outcome (control, treated, inhibition, significance)” value (Carcinogen: DIETHYLNITROSAMINE, 55-18-5, Dose [Inhibitor]: 0, 600 MG/L IN DRINKING WATER BEGINNING 3 D PRIOR TO FIRST CARCINOGEN DOSE AND CONTINUING TO 14 D POST LAST CARCINOGEN D, Route [Inhibitor]: ORAL, Species: RAT, Strain/Sex: BD6/FEMALE, Target Tissue: Type of Lesion: ESOPHAGUS: TUMOR, Dose [Carcinogen]: 80 MG/KG BW 1/WK FOR 8 WK, Promoter: NONE USED) was 15%, 9%, 40%, not significant, the “tumour outcome (control, treated, inhibition, significance)” value (Carcinogen: DIETHYLNITROSAMINE, 55-18-5, Dose [Inhibitor]: 0, 600 MG/L IN DRINKING WATER BEGINNING 3 D PRIOR TO FIRST CARCINOGEN DOSE AND CONTINUING TO 14 D POST LAST CARCINOGEN D, Route [Inhibitor]: ORAL, Species: RAT, Strain/Sex: BD6/FEMALE, Target Tissue: Type of Lesion: LIVER: TUMOR, Dose [Carcinogen]: 80 MG/KG BW 1/WK FOR 8 WK, Promoter: NONE USED) was 90%, 97%, -8%, not significant and the “tumour outcome (control, treated, inhibition, significance)” value (Carcinogen: DIETHYLNITROSAMINE, 55-18-5, Dose [Inhibitor]: 0, 600 MG/L IN DRINKING WATER FOR DURATION OF STUDY BEGINNING 4 D POST CARCINOGEN TREATMENT (STUDY DURATION: 6 MO), Route [Inhibitor]: ORAL, Species: RAT, Strain/Sex: BD6/FEMALE, Target Tissue: Type of Lesion: ESOPHAGUS: TUMOR, Dose [Carcinogen]: 80 MG/KG BW 1/WK FOR 8 WK, Promoter: NONE USED) was 15%, 29%, -93%, not significant. For the same compound, the “tumour outcome (control, treated, inhibition, significance)” value (Carcinogen: DIETHYLNITROSAMINE, 55-18-5, Dose [Inhibitor]: 0, 600 MG/L IN DRINKING WATER FOR DURATION OF STUDY BEGINNING 4 D POST CARCINOGEN TREATMENT (STUDY DURATION: 6 MO), Route [Inhibitor]: ORAL, Species: RAT, Strain/Sex: BD6/FEMALE, Target Tissue: Type of Lesion: LIVER: TUMOR, Dose [Carcinogen]: 80 MG/KG BW 1/WK FOR 8 WK, Promoter: NONE USED) was 90%, 97%, -8%, not significant, the “tumour outcome (control, treated, inhibition, significance)” value (Carcinogen: DIETHYLNITROSAMINE, 55-18-5, Dose [Inhibitor]: 0, 600 MG/L IN DRINKING WATER FOR DURATION OF STUDY BEGINNING 7 D PRIOR TO CARCINOGEN TREATMENT (STUDY DURATION: 6 MO), Route [Inhibitor]: ORAL, Species: RAT, Strain/Sex: BD6/FEMALE, Target Tissue: Type of Lesion: ESOPHAGUS: TUMOR, Dose [Carcinogen]: 80 MG/KG BW 1/WK FOR 8 WK, Promoter: NONE USED) was 14%, 17%, -21%, not significant and the “tumour outcome (control, treated, inhibition, significance)” value (Carcinogen: DIETHYLNITROSAMINE, 55-18-5, Dose [Inhibitor]: 0, 600 MG/L IN DRINKING WATER FOR DURATION OF STUDY BEGINNING 7 D PRIOR TO CARCINOGEN TREATMENT (STUDY DURATION: 6 MO), Route [Inhibitor]: ORAL, Species: RAT, Strain/Sex: BD6/FEMALE, Target Tissue: Type of Lesion: LIVER: TUMOR, Dose [Carcinogen]: 80 MG/KG BW 1/WK FOR 8 WK, Promoter: NONE USED) was 100%, 90%, 10%, not significant. The “tumour outcome (control, treated, inhibition, significance)” value (Carcinogen: N-ETHYL-N-NITROSOUREA, 759-73-9, Dose [Inhibitor]: 0, 1000 MG/KG IN DIET FOR 12 MO ADMINISTERED TO OFFSPRING OF CARCINOGEN-TREATED MOTHERS (STUDY DURATION: 12 MO), Route [Inhibitor]: ORAL, Species: RAT, Strain/Sex: ALBINO/MALE, FEMALE, Target Tissue: Type of Lesion: BRAIN: TUMOR, Dose [Carcinogen]: 75 MG/KG BW ADMINISTERED INTRAPERITONEALLY TO MOTHERS 21 D POST CONCEPTION, Promoter: NONE USED) was 53/63 (84%), 21/41 (51%), 39%, p<0.05, the “tumour outcome (control, treated, inhibition, significance)” value (Carcinogen: N-ETHYL-N-NITROSOUREA, 759-73-9, Dose [Inhibitor]: 0, 1000 MG/KG IN DIET FOR 12 MO ADMINISTERED TO OFFSPRING OF CARCINOGEN-TREATED MOTHERS (STUDY DURATION: 12 MO), Route [Inhibitor]: ORAL, Species: RAT, Strain/Sex: ALBINO/MALE, FEMALE, Target Tissue: Type of Lesion: KIDNEY: TUMOR, Dose [Carcinogen]: 75 MG/KG BW ADMINISTERED INTRAPERITONEALLY TO MOTHERS 21 D POST CONCEPTION, Promoter: NONE USED) was 23/63 (37%), 6/41 (15%), 59%, p<0.05 and the “tumour outcome (control, treated, inhibition, significance)” value (Carcinogen: N-ETHYL-N-NITROSOUREA, 759-73-9, Dose [Inhibitor]: 0, 1000 MG/KG IN DIET FOR 12 MO ADMINISTERED TO OFFSPRING OF CARCINOGEN-TREATED MOTHERS (STUDY DURATION: 12 MO), Route [Inhibitor]: ORAL, Species: RAT, Strain/Sex: ALBINO/MALE, FEMALE, Target Tissue: Type of Lesion: PERIPHERAL NERVES: TUMOR, Dose [Carcinogen]: 75 MG/KG BW ADMINISTERED INTRAPERITONEALLY TO MOTHERS 21 D POST CONCEPTION, Promoter: NONE USED) was 24/63 (38%), 5/41 (12%), 68%, p<0.05. The “tumour outcome (control, treated, inhibition, significance)” value (Carcinogen: N-ETHYL-N-NITROSOUREA, 759-73-9, Dose [Inhibitor]: 0, 1000 MG/KG IN DIET FOR 12 MO ADMINISTERED TO OFFSPRING OF CARCINOGEN-TREATED MOTHERS (STUDY DURATION: 12 MO), Route [Inhibitor]: ORAL, Species: RAT, Strain/Sex: ALBINO/MALE, FEMALE, Target Tissue: Type of Lesion: SPINAL CHORD: TUMOR, Dose [Carcinogen]: 75 MG/KG BW ADMINISTERED INTRAPERITONEALLY TO MOTHERS 21 D POST CONCEPTION, Promoter: NONE USED) was 17/63 (27%), 9/41 (22%), 19%, not significant and the “tumour outcome (control, treated, inhibition, significance)” value (Carcinogen: URETHANE, 51-79-6, Dose [Inhibitor]: 0.05 UMOL/G BW GIVEN AT 6 HR INTERVALS DURING PERIOD OF 0 TO 36 HR AFTER CARCINOGEN TREATMENT FOLLOWED BY 5 MO OBSERVATI, Route [Inhibitor]: INTRAPERITONEAL, Species: MOUSE, Strain/Sex: ICR/FEMALE, Target Tissue: Type of Lesion: LUNG: PAPILLARY ADENOMA, Dose [Carcinogen]: 0.1 MG/G BW ONCE, Promoter: NONE USED) was 31/59 (53%), 25/43 (58%), -9%, not significant.
